Source: PMC9532703, “A novel small molecule RK-019 inhibits FGFR2-amplification gastric cancer cell proliferation and induces apoptosis in vitro and in vivo” (Frontiers in Pharmacology, 2022)

Experiments:
Assay in all cases: Kinase selectivity panel
Assay type in all cases: biochemical
Details in all cases: read-out: Inhibition(%) @ 1 µM RK-019
eEF-2K(h) = target: T1, eEF-2K(h) (Homo sapiens, UniProt O00418)
T1 construct: purchased Eurofins Discovery Services (KinaseProfiler)
Outline: (§1)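 ATP-site competition binding, in vitro; recombinant human kinase, single concentration 1 µM; % inhibition read-out.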

Rsk3(h) = target: T2, Rsk3(h) (Homo sapiens, UniProt Q15349)
T2 construct: purchased Eurofins Discovery Services (KinaseProfiler)
Outline: as §1

PKCι(h) = target: T3, PKCι(h) (Homo sapiens, UniProt P41743)
T3 construct: purchased Eurofins Discovery Services (KinaseProfiler)
Outline: as §1

[1] = target: T4, PI3 Kinase (p110a(H1047R)/p85a)(h) (Homo sapiens, UniProt P42336, H1047R)
T4 construct: purchased Eurofins Discovery Services (KinaseProfiler)
Outline: as §1

PAK4(h) = target: T5, PAK4(h) (Homo sapiens, UniProt O96013)
T5 construct: purchased Eurofins Discovery Services (KinaseProfiler)
Outline: as §1

MKK3(h) = target: T6, MKK3(h) (Homo sapiens, UniProt P46734)
T6 construct: purchased Eurofins Discovery Services (KinaseProfiler)
Outline: as §1

EphB3(h) = target: T7, EphB3(h) (Homo sapiens, UniProt P54753)
T7 construct: purchased Eurofins Discovery Services (KinaseProfiler)
Outline: as §1

Arg(h) = target: T8, Arg(h) (Homo sapiens, UniProt P42684)
T8 construct: purchased Eurofins Discovery Services (KinaseProfiler)
Outline: as §1

PIP5K1a(h) = target: T9, PIP5K1a(h) (Homo sapiens, UniProt Q99755)
T9 construct: purchased Eurofins Discovery Services (KinaseProfiler)
Outline: as §1

PIP5K1g(h) = target: T10, PIP5K1g(h) (Homo sapiens, UniProt O60331)
T10 construct: purchased Eurofins Discovery Services (KinaseProfiler)
Outline: as §1

TSSK1(h) = target: T11, TSSK1(h) (Homo sapiens, UniProt Q9BXA7)
T11 construct: purchased Eurofins Discovery Services (KinaseProfiler)
Outline: as §1

PKD2(h) = target: T12, PKD2(h) (Homo sapiens, UniProt Q9BZL6)
T12 construct: purchased Eurofins Discovery Services (KinaseProfiler)
Outline: as §1

ACTR2(h) = target: T13, ACTR2(h) (Homo sapiens, UniProt P27037)
T13 construct: purchased Eurofins Discovery Services (KinaseProfiler)
Outline: as §1

Ros(h) = target: T14, Ros(h) (Homo sapiens, UniProt P08922)
T14 construct: purchased Eurofins Discovery Services (KinaseProfiler)
Outline: as §1

IKKε(h) = target: T15, IKKε(h) (Homo sapiens, UniProt Q14164)
T15 construct: purchased Eurofins Discovery Services (KinaseProfiler)
Outline: as §1

Fyn(h) = target: T16, Fyn(h) (Homo sapiens, UniProt P06241)
T16 construct: purchased Eurofins Discovery Services (KinaseProfiler)
Outline: as §1

[2] = target: T17, PI3 Kinase (p110a/p85a)(m) (Mus musculus, UniProt P42337)
T17 construct: purchased Eurofins Discovery Services (KinaseProfiler)

Met(Y1248C)(h) = target: T18, Met(Y1248C)(h) (Homo sapiens, UniProt P08581, Y1230C)
T18 construct: purchased Eurofins Discovery Services (KinaseProfiler)
Outline: as §1

CLIK1(h) = target: T19, CLIK1(h) (Homo sapiens, UniProt Q8TDR2)
T19 construct: purchased Eurofins Discovery Services (KinaseProfiler)
Outline: as §1

Hck(h) activated = target: T20, Hck(h) activated (Homo sapiens, UniProt P08631)
T20 construct: purchased Eurofins Discovery Services (KinaseProfiler)
Outline: as §1

WNK2(h) = target: T21, WNK2(h) (Homo sapiens, UniProt Q9Y3S1)
T21 construct: purchased Eurofins Discovery Services (KinaseProfiler)
Outline: as §1

ULK3(h) = target: T22, ULK3(h) (Homo sapiens, UniProt Q6PHR2)
T22 construct: purchased Eurofins Discovery Services (KinaseProfiler)
Outline: as §1

MEKK2(h) = target: T23, MEKK2(h) (Homo sapiens, UniProt Q9Y2U5)
T23 construct: purchased Eurofins Discovery Services (KinaseProfiler)
Outline: as §1

PKG1β(h) = target: T24, PKG1β(h) (Homo sapiens, UniProt Q13976)
T24 construct: purchased Eurofins Discovery Services (KinaseProfiler)
Outline: as §1

Arg(m) = target: T25, Arg(m) (Mus musculus, UniProt Q4JIM5)
T25 construct: purchased Eurofins Discovery Services (KinaseProfiler)

Tie2 (h) = target: T26, Tie2 (h) (Homo sapiens, UniProt Q02763)
T26 construct: purchased Eurofins Discovery Services (KinaseProfiler)
Outline: as §1

EphA3(h) = target: T27, EphA3(h) (Homo sapiens, UniProt P29320)
T27 construct: purchased Eurofins Discovery Services (KinaseProfiler)
Outline: as §1

CDK2/cyclinE(h) = target: T28, CDK2/cyclinE(h) (Homo sapiens, UniProt P24941)
T28 construct: purchased Eurofins Discovery Services (KinaseProfiler)
Outline: as §1

Abl (Q252H) (h) = target: T29, Abl (Q252H) (h) (Homo sapiens, UniProt P00519, Q252H)
T29 construct: purchased Eurofins Discovery Services (KinaseProfiler)
Outline: as §1

MSSK1(h) = target: T30, MSSK1(h) (Homo sapiens, UniProt Q9UPE1)
T30 construct: purchased Eurofins Discovery Services (KinaseProfiler)
Outline: as §1

Mer(h) = target: T31, Mer(h) (Homo sapiens, UniProt Q12866)
T31 construct: purchased Eurofins Discovery Services (KinaseProfiler)
Outline: as §1

CDK7/cyclinH/MAT1(h) = target: T32, CDK7/cyclinH/MAT1(h) (Homo sapiens, UniProt P50613)
T32 construct: purchased Eurofins Discovery Services (KinaseProfiler)
Outline: as §1

JNK2α2(h) = target: T33, JNK2α2(h) (Homo sapiens, UniProt P45984)
T33 construct: purchased Eurofins Discovery Services (KinaseProfiler)
Outline: as §1

STK32B(h) = target: T34, STK32B(h) (Homo sapiens, UniProt Q9NY57)
T34 construct: purchased Eurofins Discovery Services (KinaseProfiler)
Outline: as §1

TAK1(h) = target: T35, TAK1(h) (Homo sapiens, UniProt O43318)
T35 construct: purchased Eurofins Discovery Services (KinaseProfiler)
Outline: as §1

Aurora-A(h) = target: T36, Aurora-A(h) (Homo sapiens, UniProt O14965)
T36 construct: purchased Eurofins Discovery Services (KinaseProfiler)
Outline: as §1

JAK1(h) = target: T37, JAK1(h) (Homo sapiens, UniProt P23458)
T37 construct: purchased Eurofins Discovery Services (KinaseProfiler)
Outline: as §1

T6 sequence (P46734 whole entry): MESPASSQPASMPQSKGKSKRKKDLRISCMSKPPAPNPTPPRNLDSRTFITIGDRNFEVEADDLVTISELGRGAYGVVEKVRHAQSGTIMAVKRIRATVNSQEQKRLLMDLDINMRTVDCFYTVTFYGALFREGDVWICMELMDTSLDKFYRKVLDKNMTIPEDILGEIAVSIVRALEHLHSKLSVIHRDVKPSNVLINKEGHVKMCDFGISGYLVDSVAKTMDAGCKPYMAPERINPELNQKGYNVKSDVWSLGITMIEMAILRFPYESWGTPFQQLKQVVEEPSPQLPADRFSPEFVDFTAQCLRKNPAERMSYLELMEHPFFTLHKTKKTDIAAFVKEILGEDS
T13 sequence (P27037 20-513): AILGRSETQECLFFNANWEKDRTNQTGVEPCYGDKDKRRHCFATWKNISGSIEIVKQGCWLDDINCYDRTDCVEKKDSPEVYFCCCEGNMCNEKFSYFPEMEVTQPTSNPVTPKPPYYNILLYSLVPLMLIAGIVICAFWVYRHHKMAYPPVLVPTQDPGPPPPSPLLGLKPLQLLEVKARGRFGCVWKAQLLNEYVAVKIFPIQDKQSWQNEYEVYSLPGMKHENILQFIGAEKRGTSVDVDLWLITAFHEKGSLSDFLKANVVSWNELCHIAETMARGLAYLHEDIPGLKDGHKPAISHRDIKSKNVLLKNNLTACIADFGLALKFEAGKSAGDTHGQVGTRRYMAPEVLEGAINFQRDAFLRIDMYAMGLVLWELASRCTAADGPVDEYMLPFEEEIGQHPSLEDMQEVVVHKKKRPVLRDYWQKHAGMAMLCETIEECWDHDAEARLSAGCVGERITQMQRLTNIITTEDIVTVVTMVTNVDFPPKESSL
T30 sequence (Q9UPE1 whole entry): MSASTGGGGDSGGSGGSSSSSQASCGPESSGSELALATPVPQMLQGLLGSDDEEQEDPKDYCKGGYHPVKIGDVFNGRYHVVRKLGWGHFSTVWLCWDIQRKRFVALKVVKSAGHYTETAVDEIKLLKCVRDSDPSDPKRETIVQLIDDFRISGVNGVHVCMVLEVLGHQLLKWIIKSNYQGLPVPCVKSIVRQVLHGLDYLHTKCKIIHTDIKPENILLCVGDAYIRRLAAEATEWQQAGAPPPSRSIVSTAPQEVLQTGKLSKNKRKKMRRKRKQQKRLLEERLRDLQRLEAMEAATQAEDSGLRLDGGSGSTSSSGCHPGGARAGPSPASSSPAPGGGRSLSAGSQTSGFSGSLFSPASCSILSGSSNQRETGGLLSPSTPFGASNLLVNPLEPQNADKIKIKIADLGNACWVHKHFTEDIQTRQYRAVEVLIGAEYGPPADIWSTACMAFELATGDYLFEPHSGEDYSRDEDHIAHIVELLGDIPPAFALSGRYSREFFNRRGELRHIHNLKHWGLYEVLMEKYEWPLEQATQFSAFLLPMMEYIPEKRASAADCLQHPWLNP
T17 sequence (P42337 whole entry): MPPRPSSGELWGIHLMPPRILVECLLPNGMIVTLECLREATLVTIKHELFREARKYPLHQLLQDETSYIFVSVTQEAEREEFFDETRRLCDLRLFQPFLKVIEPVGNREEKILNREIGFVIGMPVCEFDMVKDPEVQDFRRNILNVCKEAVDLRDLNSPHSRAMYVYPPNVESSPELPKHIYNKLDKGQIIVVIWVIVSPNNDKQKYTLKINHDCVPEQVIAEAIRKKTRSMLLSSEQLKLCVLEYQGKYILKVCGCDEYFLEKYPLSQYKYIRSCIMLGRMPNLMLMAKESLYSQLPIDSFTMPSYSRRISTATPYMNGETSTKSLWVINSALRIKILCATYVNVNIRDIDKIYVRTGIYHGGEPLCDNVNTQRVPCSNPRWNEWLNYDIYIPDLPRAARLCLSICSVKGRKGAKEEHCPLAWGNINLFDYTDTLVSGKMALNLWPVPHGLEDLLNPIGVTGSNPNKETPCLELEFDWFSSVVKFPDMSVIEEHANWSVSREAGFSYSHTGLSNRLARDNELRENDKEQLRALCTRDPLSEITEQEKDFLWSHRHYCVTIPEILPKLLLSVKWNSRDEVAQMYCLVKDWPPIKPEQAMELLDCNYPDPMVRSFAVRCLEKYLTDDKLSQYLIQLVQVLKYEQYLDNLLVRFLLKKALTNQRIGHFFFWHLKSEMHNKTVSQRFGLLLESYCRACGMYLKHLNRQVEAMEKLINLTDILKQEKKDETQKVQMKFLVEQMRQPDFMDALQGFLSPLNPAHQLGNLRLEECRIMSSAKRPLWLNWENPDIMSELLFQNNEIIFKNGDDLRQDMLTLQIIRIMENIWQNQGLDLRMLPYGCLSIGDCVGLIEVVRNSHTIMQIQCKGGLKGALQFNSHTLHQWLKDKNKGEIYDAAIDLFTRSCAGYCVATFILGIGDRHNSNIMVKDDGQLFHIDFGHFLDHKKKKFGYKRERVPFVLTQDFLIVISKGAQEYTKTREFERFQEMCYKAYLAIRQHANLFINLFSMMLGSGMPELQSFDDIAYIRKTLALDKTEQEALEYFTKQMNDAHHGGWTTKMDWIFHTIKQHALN
T17 sequence (P26450 2-724 partner): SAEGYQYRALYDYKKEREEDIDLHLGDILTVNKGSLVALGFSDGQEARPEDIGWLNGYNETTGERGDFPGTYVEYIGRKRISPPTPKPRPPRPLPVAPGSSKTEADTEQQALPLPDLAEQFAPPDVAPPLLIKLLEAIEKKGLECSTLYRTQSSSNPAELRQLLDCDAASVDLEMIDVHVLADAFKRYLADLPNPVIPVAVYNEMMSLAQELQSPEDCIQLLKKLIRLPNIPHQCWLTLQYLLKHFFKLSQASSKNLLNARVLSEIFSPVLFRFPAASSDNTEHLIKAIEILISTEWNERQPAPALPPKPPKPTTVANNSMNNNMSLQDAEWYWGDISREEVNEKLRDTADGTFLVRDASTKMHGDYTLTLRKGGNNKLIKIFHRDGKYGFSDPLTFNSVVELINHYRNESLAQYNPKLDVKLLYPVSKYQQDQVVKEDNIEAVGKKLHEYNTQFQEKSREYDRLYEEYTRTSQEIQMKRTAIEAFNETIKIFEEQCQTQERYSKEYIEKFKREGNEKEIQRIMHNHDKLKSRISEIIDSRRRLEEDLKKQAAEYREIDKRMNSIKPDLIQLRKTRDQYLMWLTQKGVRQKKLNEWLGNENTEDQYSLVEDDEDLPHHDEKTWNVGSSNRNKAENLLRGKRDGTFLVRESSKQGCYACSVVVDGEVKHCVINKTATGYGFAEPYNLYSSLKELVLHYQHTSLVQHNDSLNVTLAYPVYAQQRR
T32 sequence (P50613 whole entry): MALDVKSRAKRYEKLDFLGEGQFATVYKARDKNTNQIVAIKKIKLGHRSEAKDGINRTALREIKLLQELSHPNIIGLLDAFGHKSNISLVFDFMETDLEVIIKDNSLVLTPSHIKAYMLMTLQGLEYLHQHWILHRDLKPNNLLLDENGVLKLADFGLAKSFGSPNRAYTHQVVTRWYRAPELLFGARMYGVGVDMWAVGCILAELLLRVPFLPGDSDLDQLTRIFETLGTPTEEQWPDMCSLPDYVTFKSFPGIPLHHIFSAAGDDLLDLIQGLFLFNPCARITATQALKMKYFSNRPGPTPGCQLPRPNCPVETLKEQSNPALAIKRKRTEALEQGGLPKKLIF
T32 sequence (P51946 whole entry partner): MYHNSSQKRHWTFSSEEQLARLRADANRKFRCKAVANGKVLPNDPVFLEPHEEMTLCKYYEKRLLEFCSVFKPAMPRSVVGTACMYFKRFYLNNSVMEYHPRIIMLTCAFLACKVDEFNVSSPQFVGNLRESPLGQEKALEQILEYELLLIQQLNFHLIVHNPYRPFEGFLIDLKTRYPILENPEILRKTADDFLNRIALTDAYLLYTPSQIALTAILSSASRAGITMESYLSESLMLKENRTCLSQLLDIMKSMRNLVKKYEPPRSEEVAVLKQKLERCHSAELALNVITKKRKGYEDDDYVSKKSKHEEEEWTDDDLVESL
T32 sequence (P51948 whole entry partner): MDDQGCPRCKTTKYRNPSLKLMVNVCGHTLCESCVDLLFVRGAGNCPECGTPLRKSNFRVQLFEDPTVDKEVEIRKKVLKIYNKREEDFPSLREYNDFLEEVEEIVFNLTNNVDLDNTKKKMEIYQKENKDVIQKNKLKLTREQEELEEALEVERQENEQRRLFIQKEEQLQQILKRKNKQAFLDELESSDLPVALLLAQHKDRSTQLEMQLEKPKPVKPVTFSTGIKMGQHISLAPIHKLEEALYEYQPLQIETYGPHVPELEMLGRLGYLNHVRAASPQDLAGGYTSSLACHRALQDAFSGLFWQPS
T19 sequence (Q8TDR2 whole entry): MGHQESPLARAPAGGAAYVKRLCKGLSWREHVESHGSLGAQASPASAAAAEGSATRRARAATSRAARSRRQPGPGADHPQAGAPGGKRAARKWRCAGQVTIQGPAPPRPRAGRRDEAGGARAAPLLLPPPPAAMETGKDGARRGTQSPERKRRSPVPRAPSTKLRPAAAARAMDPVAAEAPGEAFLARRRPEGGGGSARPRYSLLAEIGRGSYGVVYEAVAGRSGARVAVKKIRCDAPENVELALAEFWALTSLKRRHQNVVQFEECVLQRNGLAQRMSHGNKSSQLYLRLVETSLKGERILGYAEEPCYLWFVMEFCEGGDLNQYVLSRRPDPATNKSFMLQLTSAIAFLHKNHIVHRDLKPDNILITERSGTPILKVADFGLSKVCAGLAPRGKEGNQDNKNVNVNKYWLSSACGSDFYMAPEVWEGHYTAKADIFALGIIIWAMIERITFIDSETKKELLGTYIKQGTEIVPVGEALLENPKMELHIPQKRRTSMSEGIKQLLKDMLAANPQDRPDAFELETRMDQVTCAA

COc1cc(OC)cc(N(CCN[C@H](C)CO)c2ccc3ncc(-c4cnn(C)c4)c(=O)n3c2)c1 [RK-019, (R)-7-((3,5-dimethoxyphenyl) (2-((1-hydroxypropan-2-yl)amino)ethyl)amino)-3-(1-methyl-1H-pyrazol-4-yl)-4H-pyrido [1,2-a]pyrimidin-4-one]
activity at 1 µM (eEF-2K(h)): 97%
activity at 1 µM (Rsk3(h)): 100%
activity at 1 µM (PKCι(h)): 100%
activity at 1 µM [1]: 100%
activity at 1 µM (PAK4(h)): 82%
activity at 1 µM (MKK3(h)): 96%
activity at 1 µM (EphB3(h)): 89%
activity at 1 µM (Arg(h)): 86%
activity at 1 µM (PIP5K1a(h)): 103%
activity at 1 µM (PIP5K1g(h)): 97%
activity at 1 µM (TSSK1(h)): 109%
activity at 1 µM (PKD2(h)): 98%
activity at 1 µM (ACTR2(h)): 85%
activity at 1 µM (Ros(h)): 101%
activity at 1 µM (IKKε(h)): 107%
activity at 1 µM (Fyn(h)): 62%
activity at 1 µM [2]: 101%
activity at 1 µM (Met(Y1248C)(h)): 85%
activity at 1 µM (CLIK1(h)): 102%
activity at 1 µM (Hck(h) activated): 60%
activity at 1 µM (WNK2(h)): 103%
activity at 1 µM (ULK3(h)): 91%
activity at 1 µM (MEKK2(h)): 96%
activity at 1 µM (PKG1β(h)): 103%
activity at 1 µM (Arg(m)): 88%
activity at 1 µM (Tie2 (h)): 105%
activity at 1 µM (EphA3(h)): 60%
activity at 1 µM (CDK2/cyclinE(h)): 123%
activity at 1 µM (Abl (Q252H) (h)): 46%
activity at 1 µM (MSSK1(h)): 135%
activity at 1 µM (Mer(h)): 108%
activity at 1 µM (CDK7/cyclinH/MAT1(h)): 108%
activity at 1 µM (JNK2α2(h)): 99%
activity at 1 µM (STK32B(h)): 123%
activity at 1 µM (TAK1(h)): 102%
activity at 1 µM (Aurora-A(h)): 133%
activity at 1 µM (JAK1(h)): 120%
